pIC50: −log10 of the molar value.
Each molecule was assayed against T1, Human macrophage mannose receptor 1 (MRC1) (Homo sapiens, UniProt P22897) (assay: MRC1 competition binding assay with Eu-mannosylated-BSA). Details: Method E: 96-well plate; IP = inflection point; read-out: MRC1 Binding IP.
T1 sequence (P22897 19-1456): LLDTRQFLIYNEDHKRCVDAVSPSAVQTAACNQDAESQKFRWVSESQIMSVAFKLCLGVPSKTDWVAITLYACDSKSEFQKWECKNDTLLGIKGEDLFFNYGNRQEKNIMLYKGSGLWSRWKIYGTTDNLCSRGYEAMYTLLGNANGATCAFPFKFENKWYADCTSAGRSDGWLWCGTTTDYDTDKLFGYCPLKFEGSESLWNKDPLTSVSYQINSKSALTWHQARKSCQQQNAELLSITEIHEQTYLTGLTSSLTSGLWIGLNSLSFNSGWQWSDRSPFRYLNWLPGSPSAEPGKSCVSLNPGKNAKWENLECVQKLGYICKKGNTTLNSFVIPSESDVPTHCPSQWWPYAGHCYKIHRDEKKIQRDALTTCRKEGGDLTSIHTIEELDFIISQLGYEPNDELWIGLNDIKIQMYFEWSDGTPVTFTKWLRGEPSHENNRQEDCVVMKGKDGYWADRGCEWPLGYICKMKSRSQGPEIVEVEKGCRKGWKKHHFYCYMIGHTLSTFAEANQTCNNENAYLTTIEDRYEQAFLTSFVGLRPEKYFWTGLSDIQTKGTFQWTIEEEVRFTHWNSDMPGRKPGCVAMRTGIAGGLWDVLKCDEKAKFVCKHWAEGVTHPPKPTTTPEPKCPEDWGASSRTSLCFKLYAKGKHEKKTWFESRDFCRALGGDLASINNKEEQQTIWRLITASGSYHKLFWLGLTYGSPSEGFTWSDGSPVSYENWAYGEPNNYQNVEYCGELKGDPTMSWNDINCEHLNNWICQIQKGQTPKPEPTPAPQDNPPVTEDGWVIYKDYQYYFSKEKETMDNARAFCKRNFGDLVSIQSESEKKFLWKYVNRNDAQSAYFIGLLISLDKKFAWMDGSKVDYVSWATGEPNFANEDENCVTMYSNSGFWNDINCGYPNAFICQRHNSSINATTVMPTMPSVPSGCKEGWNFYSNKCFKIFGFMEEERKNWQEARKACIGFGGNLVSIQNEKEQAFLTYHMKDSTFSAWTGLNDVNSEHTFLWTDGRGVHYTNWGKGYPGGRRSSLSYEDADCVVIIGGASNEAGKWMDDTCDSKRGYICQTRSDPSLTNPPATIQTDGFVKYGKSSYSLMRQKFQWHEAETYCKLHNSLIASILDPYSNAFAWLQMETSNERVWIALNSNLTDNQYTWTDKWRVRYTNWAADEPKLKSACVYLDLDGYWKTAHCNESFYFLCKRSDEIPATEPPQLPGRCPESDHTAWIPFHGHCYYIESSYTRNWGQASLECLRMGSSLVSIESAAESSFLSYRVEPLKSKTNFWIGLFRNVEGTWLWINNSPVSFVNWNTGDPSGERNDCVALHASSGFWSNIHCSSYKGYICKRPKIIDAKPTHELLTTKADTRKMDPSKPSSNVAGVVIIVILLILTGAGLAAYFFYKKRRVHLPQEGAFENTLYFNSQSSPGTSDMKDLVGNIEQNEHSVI
Procedure: The competition binding assay for Human macrophage mannose receptor 1 (MRC1) utilized a ligand, mannosylated-BSA labeled with the DELFIA Eu-N1-ITC reagent, as reported in the literature. Assay was performed either in a 96-well plate with 100 μL well volume (Method E) or in a 384-well plate with 25 μL well volume (Method F). […] The antibody was incubated in the plate for 1 hr at rt with shaking. The plate was washed with wash buffer 3-5 times followed by addition of MRC1 (2 ng/μl final concentration) in PBS containing 1% stabilizer BSA. The plate was incubated at rt with gentle shaking for 1 hr. The plate was washed three times with wash buffer. The IOC molecules in 12.5 μL (or 50 μL depending on plate format) buffer at appropriate concentrations were added followed by 12.5 μL (or 50 μL) Eu-mannosylated-BSA (0.1 nm final concentration) in 50 mM Tris, pH 7.5 containing 100 mM NaCl, 5 mM CaCl2, 1 mM MgCl2 and 0.2% stabilizer BSA. The plate was incubated for 2 hrs at rt with shaking followed by washing three times with wash buffer.

SMILES | pIC50
CC(=O)[C@H](CCCCN)NC(=O)CCCCC(=O)N[C@@H](CCC(=O)NCCO[C@H]1O[C@H](CO)[C@@H](O)[C@H](O)[C@@H]1O)C(=O)N[C@@H](CCC(=O)NCCO[C@H]1O[C@H](CO)[C@@H](O)[C@H](O)[C@@H]1O)C(=O)N[C@@H](CCC(=O)NCCO[C@H]1O[C@H](CO)[C@@H](O)[C@H](O)[C@@H]1O)C(=O)NCCO[C@H]1O[C@H](CO[C@H]2O[C@H](CO)[C@@H](O)[C@H](O)[C@@H]2O)[C@@H](O)[C@H](O[C@H]2O[C@H](CO)[C@@H](O)[C@H](O)[C@@H]2O)[C@@H]1O [IOC-23] | 7.43
CC(=O)[C@H](CCCCN)NC(=O)CCCCCNC(=O)[C@H](CCCCNC(=O)CCCCC(=O)NCCO[C@H]1O[C@H](CO[C@H]2O[C@H](CO)[C@@H](O)[C@H](O)[C@@H]2O)[C@@H](O)[C@H](O[C@H]2O[C@H](CO)[C@@H](O)[C@H](O)[C@@H]2O)[C@@H]1O)NC(=O)[C@H](CCCCNC(=O)CCCCC(=O)NCCO[C@H]1O[C@H](CO[C@H]2O[C@H](CO)[C@@H](O)[C@H](O)[C@@H]2O)[C@@H](O)[C@H](O[C@H]2O[C@H](CO)[C@@H](O)[C@H](O)[C@@H]2O)[C@@H]1O)NC(=O)CCCCC(=O)NCCO[C@H]1O[C@H](CO[C@H]2O[C@H](CO)[C@@H](O)[C@H](O)[C@@H]2O)[C@@H](O)[C@H](O[C@H]2O[C@H](CO)[C@@H](O)[C@H](O)[C@@H]2O)[C@@H]1O [IOC-7] | 8.14
CC(=O)[C@H](CCCCN)NC(=O)CCCCC(=O)N[C@@H](CCC(=O)NCCCC[C@@H](C(=O)NCCO[C@H]1O[C@H](CO)[C@@H](O)[C@H](O)[C@@H]1O)N(CC(=O)NCCO[C@H]1O[C@H](CO)[C@@H](O)[C@H](O)[C@@H]1O)CC(=O)NCCO[C@H]1O[C@H](CO)[C@@H](O)[C@H](O)[C@@H]1O)C(=O)N[C@@H](CCC(=O)NCCCC[C@@H](C(=O)NCCO[C@H]1O[C@H](CO)[C@@H](O)[C@H](O)[C@@H]1O)N(CC(=O)NCCO[C@H]1O[C@H](CO)[C@@H](O)[C@H](O)[C@@H]1O)CC(=O)NCCO[C@H]1O[C@H](CO)[C@@H](O)[C@H](O)[C@@H]1O)C(=O)N[C@@H](CC(C)C)C(=O)NCCCC[C@@H](C(=O)NCCO[C@H]1O[C@H](CO)[C@@H](O)[C@H](O)[C@@H]1O)N(CC(=O)NCCO[C@H]1O[C@H](CO)[C@@H](O)[C@H](O)[C@@H]1O)CC(=O)NCCO[C@H]1O[C@H](CO)[C@@H](O)[C@H](O)[C@@H]1O [IOC-56] | 7.51
CC(=O)[C@H](CCCCN)NC(=O)CCCCC(=O)N[C@@H](CCC(=O)NCCO[C@H]1O[C@H](CO[C@H]2O[C@H](CO)[C@@H](O)[C@H](O)[C@@H]2O)[C@@H](O)[C@H](O[C@H]2O[C@H](CO)[C@@H](O)[C@H](O)[C@@H]2O)[C@@H]1O)C(=O)N[C@@H](CCC(=O)NCCO[C@H]1O[C@H](CO[C@H]2O[C@H](CO)[C@@H](O)[C@H](O)[C@@H]2O)[C@@H](O)[C@H](O[C@H]2O[C@H](CO)[C@@H](O)[C@H](O)[C@@H]2O)[C@@H]1O)C(=O)N[C@@H](CC(C)C)C(=O)NCCO[C@H]1O[C@H](CO[C@H]2O[C@H](CO)[C@@H](O)[C@H](O)[C@@H]2O)[C@@H](O)[C@H](O[C@H]2O[C@H](CO)[C@@H](O)[C@H](O)[C@@H]2O)[C@@H]1O [IOC-4] | 8.12

Same assay, conditions: Method F: 384-well plate; IP = inflection point; read-out: MRC1 Binding IP

SMILES | pIC50
CC(=O)[C@H](CCCCN)NC(=O)CCCCCNC(=O)[C@H](CCCCNC(=O)CCCCCNC(=O)CCCCCNC(=O)CN(CC(=O)NCCO[C@H]1O[C@H](CO)[C@@H](O)[C@H](O)[C@@H]1O)CC(=O)NCCO[C@@H]1O[C@@H](C)[C@@H](O)[C@@H](O)[C@@H]1O)NC(=O)[C@H](CCCCNC(=O)CCCCCNC(=O)CN(CC(=O)NCCO[C@H]1O[C@H](CO)[C@@H](O)[C@H](O)[C@@H]1O)CC(=O)NCCO[C@@H]1O[C@@H](C)[C@@H](O)[C@@H](O)[C@@H]1O)NC(=O)CCCCCNC(=O)CN(CC(=O)NCCO[C@H]1O[C@H](CO)[C@@H](O)[C@H](O)[C@@H]1O)CC(=O)NCCO[C@@H]1O[C@@H](C)[C@@H](O)[C@@H](O)[C@@H]1O [IOC-53] | 8.04
CC(=O)[C@H](CCCCN)NC(=O)CCCCCNC(=O)[C@H](CCCCNC(=O)[C@H](CCCCNC(=O)CCCCCNC(=O)CN(CC(=O)NCCO[C@H]1O[C@H](CO)[C@@H](O)[C@H](O)[C@@H]1O)CC(=O)NCCO[C@H]1O[C@H](CO)[C@@H](O)[C@H](O)[C@@H]1O)NC(=O)CN(CC(=O)NCCO[C@H]1O[C@H](CO)[C@@H](O)[C@H](O)[C@@H]1O)CC(=O)NCCO[C@H]1O[C@H](CO)[C@@H](O)[C@H](O)[C@@H]1O)NC(=O)CN(CC(=O)NCCO[C@@H]1O[C@@H](C)[C@@H](O)[C@@H](O)[C@@H]1O)CC(=O)NCCO[C@@H]1O[C@@H](C)[C@@H](O)[C@@H](O)[C@@H]1O [IOC-46] | 7.23
CC(=O)[C@H](CCCCN)NC(=O)CCCCCNC(=O)[C@H](CCCCNC(=O)CN(CC(=O)NCCO[C@@H]1O[C@@H](C)[C@@H](O)[C@@H](O)[C@@H]1O)CC(=O)NCCO[C@@H]1O[C@@H](C)[C@@H](O)[C@@H](O)[C@@H]1O)NC(=O)[C@H](CCCCNC(=O)CN(CC(=O)NCCO[C@@H]1O[C@@H](C)[C@@H](O)[C@@H](O)[C@@H]1O)CC(=O)NCCO[C@@H]1O[C@@H](C)[C@@H](O)[C@@H](O)[C@@H]1O)NC(=O)CN(CC(=O)NCCO[C@@H]1O[C@@H](C)[C@@H](O)[C@@H](O)[C@@H]1O)CC(=O)NCCO[C@@H]1O[C@@H](C)[C@@H](O)[C@@H](O)[C@@H]1O [IOC-47] | 7.98
CC(=O)[C@H](CCCCN)NC(=O)CCCCCNC(=O)[C@H](CCCCNC(=O)[C@H](CCCCNC(=O)[C@H](CCCCNC(=O)[C@H](CCCCNC(=O)CCCCCCNC(=O)CN(CC(=O)NCCO[C@H]1O[C@H](CO)[C@@H](O)[C@H](O)[C@@H]1O)CC(=O)NCCO[C@H]1O[C@H](CO)[C@@H](O)[C@H](O)[C@@H]1O)NC(=O)CN(CC(=O)NCCO[C@H]1O[C@H](CO)[C@@H](O)[C@H](O)[C@@H]1O)CC(=O)NCCO[C@H]1O[C@H](CO)[C@@H](O)[C@H](O)[C@@H]1O)NC(=O)CN(CC(=O)NCCO[C@H]1O[C@H](O)[C@@H](O)[C@H](O)[C@@H]1O)CC(=O)NCCO[C@H]1O[C@H](CO)[C@@H](O)[C@H](O)[C@@H]1O)NC(=O)CN(CC(=O)NCCO[C@H]1O[C@H](CO)[C@@H](O)[C@H](O)[C@@H]1O)CC(=O)NCCO[C@H]1O[C@H](CO)[C@@H](O)[C@H](O)[C@@H]1O)NC(=O)CN(CC(=O)NCCO[C@H]1O[C@H](CO)[C@@H](O)[C@H](O)[C@@H]1O)CC(=O)NCCO[C@H]1O[C@H](CO)[C@@H](O)[C@H](O)[C@@H]1O [IOC-60] | 7.06
CC(=O)[C@H](CCCCN)NC(=O)CCCCC(=O)NCC(=O)N[C@@H](CCC(=O)N[C@@H](CCC(=O)NCCCCCC(=O)N(CCOC1O[C@H](CO)[C@@H](O)[C@H](O)[C@@H]1O)CCO[C@H]1O[C@H](CO)[C@@H](O)[C@H](O)[C@@H]1O)C(=O)NCCCCCC(=O)N(CCOC1O[C@H](CO)[C@@H](O)[C@H](O)[C@@H]1O)CCOC1O[C@H](CO)[C@@H](O)[C@H](O)[C@@H]1O)C(=O)NCCCCCC(=O)NCCO[C@H]1O[C@H](CO[C@H]2O[C@H](CO)[C@@H](O)[C@H](O)[C@@H]2O)[C@@H](O)[C@H](O[C@H]2O[C@H](CO)[C@@H](O)[C@H](O)[C@@H]2O)[C@@H]1O (stereo partly shown) [IOC-35] | 7.78
CC(=O)[C@H](CCCCN)NC(=O)CCCCCNC(=O)[C@H](CCCCNC(=O)CCCCCNC(=O)CN(CC(=O)NCCO[C@H]1O[C@H](CO)[C@@H](O)[C@H](O)[C@@H]1O)CC(=O)NCCO[C@H]1O[C@H](CO)[C@@H](O)[C@H](O)[C@@H]1O)NC(=O)[C@H](CCCCNC(=O)CCCCCNC(=O)CN(CC(=O)NCCO[C@H]1O[C@H](CO)[C@@H](O)[C@H](O)[C@@H]1O)CC(=O)NCCO[C@H]1O[C@H](CO)[C@@H](O)[C@H](O)[C@@H]1O)NC(=O)CCCCCNC(=O)CN(CC(=O)NCCO[C@H]1O[C@H](CO)[C@@H](O)[C@H](O)[C@@H]1O)CC(=O)NCCO[C@H]1O[C@H](CO)[C@@H](O)[C@H](O)[C@@H]1O [IOC-40] | 7.61
